# US11390604B2 (Hoffmann-La Roche Inc., priority 2019, dated 2022)
# Counter-ions that a name gives are not always drawn.
# Test system: Acinetobacter baumannii ATCC 17961
# Assay: Antimicrobial susceptibility testing: 90% growth inhibitory concentration (IC90) determination
# Format: cell-based
# Conditions: ATCC17961, Acinetobacter baumannii ATCC 17961, Iso-Sensitest broth, read-out: ATCC 17961 IC90
# Summary of the method: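 Growth was followed kinetically by OD600 at 20-min intervals for 16 h at 35±2 °C, with ~5×10^5 CFU/ml in Iso-Sensitest broth. Compounds were tested as twofold dilutions (e.g. 50–0.097 μM final). The concentration giving 90% inhibition of log-phase growth was reported.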
row,Structure (SMILES),IC90
1,"C=C(C)Cn1cc(-c2cnc(C(=O)Nc3ccc(C(=O)N[C@H]4C[C@@H](N)C4)c(Cl)c3)n2C)c(C(F)(F)F)n1 [Example 234, rac-N-(4-(((1s,3s)-3-aminocyclobutyl)carbamoyl)-3-chlorophenyl)-1-methyl-5-(1-(2-methylallyl)-3-(trifluoromethyl)-1H-pyrazol-4-yl)-1H-imidazole-2-carboxamide hydrochloride]",268 nM
2,"Cn1c(-c2cn(CC(F)F)nc2C(F)(F)F)cnc1C(=O)Nc1ccc(C(=O)NC2C3CN(C(=O)C4CCNCC4)CC32)c(Cl)c1 (centres unmarked) [Example 235, N-(3-chloro-4-((3-(piperidine-4-carbonyl)-3-azabicyclo[3.1.0]hexan-6-yl)carbamoyl)phenyl)-5-(1-(2,2-difluoroethyl)-3-(trifluoromethyl)-1H-pyrazol-4-yl)-1-methyl-1H-imidazole-2-carboxamide formate]",268 nM
3,"CCn1cc(-c2cnc(C(=O)Nc3ccc(C(=O)N4CCC(CCN)CC4)c(Cl)c3)n2C)c(C(F)(F)F)n1 [Example 239, N-(4-(4-(2-aminoethyl)piperidine-1-carbonyl)-3-chlorophenyl)-5-(1-ethyl-3-(trifluoromethyl)-1H-pyrazol-4-yl)-1-methyl-1H-imidazole-2-carboxamide hydrochloride]",273 nM
4,"Cn1c(-c2cn(Cc3ccccc3)nc2C(F)(F)F)cnc1C(=O)Nc1ccc(C(=O)N2CCN(C(=O)C3CCNCC3)CC2)c(Cl)c1 [Example 241, 5-(1-benzyl-3-(trifluoromethyl)-1H-pyrazol-4-yl)-N-(3-chloro-4-(4-(piperidine-4-carbonyl)piperazine-1-carbonyl)phenyl)-1-methyl-1H-imidazole-2-carboxamide hydrochloride]",281 nM
5,"C#CCn1cc(-c2cnc(C(=O)Nc3ccc(C(=O)NCCOCCN)c(CC)c3)n2C)c(C(F)(F)F)n1 [Example 242, N-[4-[2-(2-aminoethoxy)ethylcarbamoyl]-3-ethyl-phenyl]-1-methyl-5-[1-prop-2-ynyl-3-(trifluoromethyl)pyrazol-4-yl]imidazole-2-carboxamide; formic acid]",283 nM
6,"Cn1c(-c2cn(CC(F)F)nc2C(F)(F)F)cnc1C(=O)Nc1ccc(S(=O)(=O)N2CCNCC2)cc1 [Example 244, 5-(1-(2,2-difluoroethyl)-3-(trifluoromethyl)-1H-pyrazol-4-yl)-1-methyl-N-(4-(piperazin-1-ylsulfonyl)phenyl)-1H-imidazole-2-carboxamide hydrochloride]",287 nM
7,"C#CCn1cc(-c2cnc(C(=O)Nc3ccc(C(=O)NC4C5CN(C(=O)C6CCNCC6)CC54)c(Cl)c3)n2C)c(C(F)(F)F)n1 (centres unmarked) [Example 245, N-(3-chloro-4-((3-(piperidine-4-carbonyl)-3-azabicyclo[3.1.0]hexan-6-yl)carbamoyl)phenyl)-1-methyl-5-(1-(prop-2-yn-1-yl)-3-(trifluoromethyl)-1H-pyrazol-4-yl)-1H-imidazole-2-carboxamide formate]",288 nM
8,"Cn1c(-c2cn(C3CC3(F)F)nc2C(F)(F)F)cnc1C(=O)Nc1ccc(C(=O)NCCCCCN)c(Cl)c1 (centres unmarked) [Example 247, N-(4-((5-aminopentyl)carbamoyl)-3-chlorophenyl)-5-(1-(2,2-difluorocyclopropyl)-3-(trifluoromethyl)-1H-pyrazol-4-yl)-1-methyl-1H-imidazole-2-carboxamide]",295 nM
9,"Cn1c(-c2cn(C3CC3(F)F)nc2C(F)(F)F)cnc1C(=O)Nc1ccc(C(=O)NC2[C@H]3CN(C(=O)NC(CN)CCl)C[C@@H]23)c(Cl)c1 (stereo partly drawn) [Example 248, cis-N-(1-amino-3-chloropropan-2-yl)-6-[[2-chloro-4-[[5-[1-(2,2-difluorocyclopropyl)-3-(trifluoromethyl)pyrazol-4-yl]-1-methylimidazole-2-carbonyl]amino]benzoyl]amino]-3-azabicyclo[3.1.0]hexane-3-carboxamide, formate salt]",297 nM
10,"Cn1c(-c2cn(C3CC3)nc2C(F)(F)F)cnc1C(=O)Nc1ccc(C(=O)N2CCC3(CCNCC3)CC2)c(Cl)c1 [Example 249, N-(3-chloro-4-(3,9-diazaspiro[5.5]undecane-3-carbonyl)phenyl)-5-(1-cyclopropyl-3-(trifluoromethyl)-1H-pyrazol-4-yl)-1-methyl-1H-imidazole-2-carboxamide hydrochloride]",300 nM
11,"Cn1c(-c2cn(CC#N)nc2C(F)(F)F)cnc1C(=O)Nc1ccc(C(=O)N[C@H]2C[C@@H](NC(=O)[C@@H]3CCNC3)C2)c(Cl)c1 [Example 253, N-[3-chloro-4-[[3-[[(3R)-pyrrolidine-3-carbonyl]amino]cyclobutyl]car-bamoyl]phenyl]-5-[1-(cyanomethyl)-3-(trifluoromethyl)pyrazol-4-yl]-1-methyl-imidazole-2-carboxamide; formic acid]",309 nM
12,"C=C(C)Cn1cc(-c2cnc(C(=O)Nc3ccc(C(=O)NCCCN)c(Cl)c3)n2C)c(C(F)(F)F)n1 [Example 255, N-(4-((3-aminopropyl)carbamoyl)-3-chlorophenyl)-1-methyl-5-(1-(2-methylallyl)-3-(trifluoromethyl)-1H-pyrazol-4-yl)-1H-imidazole-2-carboxamide tris(2,2,2-trifluoroacetate)]",312 nM
13,"C=C(C)Cn1cc(-c2cnc(C(=O)Nc3ccc(C(=O)N4CCN(C(=O)[C@H]5[C@@H]6CNC[C@@H]65)CC4)c(Cl)c3)n2C)c(C(F)(F)F)n1 [Example 257, rac-N-(4-(4-((1R,5S,6r)-3-azabicyclo[3.1.0]hexane-6-carbonyl)piperazine-1-carbonyl)-3-chlorophenyl)-1-methyl-5-(1-(2-methylallyl)-3-(trifluoromethyl)-1H-pyrazol-4-yl)-1H-imidazole-2-carboxamide hydrochloride]",313 nM

# Second part, the compound after the results:
row,IC90,Structure (SMILES)
1,267 nM,"Cn1c(-c2cn(C3CC3)nc2C(F)(F)F)cnc1C(=O)Nc1ccc(C(=O)N2CCN(C(=O)[C@H]3CC[C@H](N)CC3)CC2)c(Cl)c1 [Example 231, N-[4-[4-(4-aminocyclohexanecarbonyl)piper-azine-1-carbonyl]-3-chlorophenyl]-5-[1-cyclopropyl-3-(trifluoromethyl)pyrazol-4-yl]-1-methylimidazole-2-carboxamide;hydrochloride]"
2,267 nM,"Cn1c(-c2cn(C3CC3)nc2C(F)(F)F)cnc1C(=O)Nc1ccc(C(=O)N2CCN(C(=O)N[C@@H]3CC[C@@H](N)C3)CC2)c(Cl)c1 [Example 232, N-((1R,3R)-3-aminocyclopentyl)-4-(2-chloro-4-(5-(1-cyclopropyl-3-(trifluoromethyl)-1H-pyrazol-4-yl)-1-methyl-1H-imidazole-2-carboxamido)benzoyl)piperazine-1-carboxamide formate]"
3,267 nM,"Cn1c(-c2cn(C3CC3)nc2C(F)(F)F)cnc1C(=O)Nc1ccc(C(=O)N2CCN(C(=O)NC3CNC3)CC2)c(Cl)c1 [Example 233, N-(azetidin-3-yl)-4-[2-chloro-4-[[5-[1-cyclopropyl-3-(trifluoromethyl)pyrazol-4-yl]-1-methyl-imidazole-2-carbonyl]amino]benzoyl]pipera-zine-1-carboxamide; formic acid]"
4,270 nM,"Cn1c(-c2cn(C3CC3)nc2C(F)(F)F)cnc1C(=O)Nc1ccc(C(=O)N2CCN(C(=O)NC3CCNC3)CC2)c(Cl)c1 (centres unmarked) [Example 236, 4-[2-chloro-4-[[5-[1-cyclopropyl-3-(trifluoromethyl)pyrazol-4-yl]-1-methylimidazole-2-carbonyl]amino]benzoyl]-N-pyrrolidin-3-ylpiperazine-1-carboxamide;formic acid]"
5,274 nM,"Cn1c(-c2cn(C3CC3)nc2C(F)(F)F)cnc1C(=O)Nc1ccc(C(=O)N2CCN(C(=O)N[C@H]3C[C@@H](N)C3)CC2)c(Cl)c1 [Example 240, rac-N-((1s,3s)-3-aminocyclobutyl)-4-(2-chloro-4-(5-(1-cyclopropyl-3-(trifluoromethyl)-1H-pyrazol-4-yl)-1-methyl-1H-imidazole-2-carboxamido)benzoyl)piperazine-1-carboxamide formate]"
6,286 nM,"Cn1c(-c2cn(C3CC3)nc2C(F)(F)F)cnc1C(=O)Nc1ccc(C(=O)N2CCN(C(=O)[C@@H]3CCC[C@@H]3N)CC2)c(Cl)c1 [Example 243, N-(4-(4-((1R,2S)-2-aminocyclopentane-1-carbonyl)piperazine-1-carbonyl)-3-chlorophenyl)-5-(1-cyclopropyl-3-(trifluoromethyl)-1H-pyrazol-4-yl)-1-methyl-1H-imidazole-2-carboxamide hydrochloride]"
7,293 nM,"Cn1c(-c2cn(C3CC3)nc2C(F)(F)F)cnc1C(=O)Nc1ccc(C(=O)N2CCN(C(=O)C[C@H]3CCNC3)CC2)c(Cl)c1 [Example 246, (R)-N-(3-chloro-4-(4-(2-(pyrrolidin-3-yl)acetyl)piperazine-1-carbonyl)phenyl)-5-(1-cyclopropyl-3-(trifluoromethyl)-1H-pyrazol-4-yl)-1-methyl-1H-imidazole-2-carboxamide hydrochloride]"
8,302 nM,"Cn1c(-c2cn(C3CC3)nc2C(F)(F)F)cnc1C(=O)Nc1ccc(C(=O)N2CCN(C(=O)[C@H]3CCCN3)CC2)c(Cl)c1 [Example 250, (R)-N-(3-chloro-4-(4-prolylpiperazine-1-carbonyl)phenyl)-5-(1-cyclopropyl-3-(trifluoromethyl)-1H-pyrazol-4-yl)-1-methyl-1H-imidazole-2-carboxamide hydrochloride]"
9,306 nM,"Cn1c(-c2cn(CCCl)nc2C(F)(F)F)cnc1C(=O)Nc1ccc(C(=O)N2CCN(C(=O)NC3CNC3)CC2)c(Cl)c1 [Example 251, N-(azetidin-3-yl)-4-[2-chloro-4-[[5-[1-(2-chloroethyl)-3-(trifluoromethyl)pyrazol-4-yl]-1-methyl-imidazole-2-carbonyl]amino]benzoyl]pipera-zine-1-carboxamide]"
10,308 nM,"Cn1c(-c2cn(C3CC3)nc2C(F)(F)F)cnc1C(=O)Nc1ccc(C(=O)N2CCN(C(=O)CCN)CC2)c(Cl)c1 [Example 252, N-(4-(4-(3-aminopropanoyl)piperazine-1-carbonyl)-3-chlorophenyl)-5-(1-cyclopropyl-3-(trifluoromethyl)-1H-pyrazol-4-yl)-1-methyl-1H-imidazole-2-carboxamide hydrochloride]"
